From patent US10487093B2, “Heterocyclic compounds, in particular 2-oxo-4,4,5,5,6,6,7,7-octahydrobenzoxazole derivatives, and their use as antibacterial compounds” (priority 2016, dated 2019) come the findings set out here.

For assay [1], the system named is Acinetobacter baumannii ATCC 19606. The assay is described as follows: MIC, broth microdilution (CLSI) versus planktonic bacteria. Type of assay: cell-based. Conditions: ATCC19606; Acinetobacter baumannii ATCC 19606; 16-20 h; mode of three independent experiments; read-out: MIC, Ab ATCC 19606. On the technique in general: Broth dilution looks for growth in wells or tubes with falling amounts of substance.

The test system of another assay is E. coli NCTC 13476. The description is as above. Type of assay: cell-based. Conditions: NCTC13476; Escherichia coli NCTC 13476; 16-20 h; mode of three independent experiments; read-out: MIC, Ec NCTC 13476.
Assay [2] deals with Pseudomonas aeruginosa ATCC 27853. Described as above. Type of assay: cell-based. The note with it: ATCC27853; Pseudomonas aeruginosa ATCC 27853; 16-20 h; mode of three independent experiments; read-out: MIC, Pa ATCC 27853.
For a further assay, the system named is E. coli ATCC BAA-2452. Described as above. Type of assay: cell-based. The note with it: Escherichia coli ATCC BAA-2452; 16-20 h; mode of three independent experiments; read-out: MIC, Ec ATCC BAA 2452.
Assay [3] deals with Gram-negative and Gram-positive bacterial strains. Type of assay: cell-based. Conditions: strain panel of Table 1.
The next assay deals with E. coli MG1655 D87G. Type of assay: cell-based, Escherichia coli. The note with it: compared to the isogenic parent strain E. coli MG1655; D87G mutation on DNA gyrase subunit GyrA.
Assay [4] has as its system Enterococcus faecalis ATCC 29212. The assay is described as follows: MIC, broth microdilution (CLSI) versus planktonic bacteria. Type of assay: cell-based. The note with it: ATCC29212, 16-20 h, mode of three independent experiments, read-out: MIC, Ef ATCC 29212.
Another assay has as its system E. coli MG1655 S83L. Type of assay: cell-based, Escherichia coli. Conditions: compared to the isogenic parent strain E. coli MG1655; S83L mutation on DNA gyrase subunit GyrA.
Assay [5] deals with fluoroquinolone-resistant Enterococcus faecium ATCC 700221. The assay is described as follows: MIC, broth microdilution (CLSI) versus planktonic bacteria. Type of assay: cell-based. The note with it: ATCC700221, 16-20 h, mode of three independent experiments, read-out: MIC, Efm ATCC 700221.
Assay [6] concerns Haemophilus influenzae ATCC 49247. Described as above. Type of assay: cell-based. Conditions: ATCC49247; Haemophilus influenzae ATCC 49247; 16-20 h; mode of three independent experiments; read-out: MIC, Hi ATCC 49247.
For assay [7], the system named is Streptococcus pneumoniae ATCC 49619. The description is as above. Type of assay: cell-based. Conditions: ATCC49619; Streptococcus pneumoniae ATCC 49619; 16-20 h; mode of three independent experiments; read-out: MIC, Sp ATCC 49619.
The test system of assay [8] is Neisseria meningitidis ATCC 13090. Described as above. Type of assay: cell-based. Conditions: ATCC13090, 16-20 h, mode of three independent experiments.
In a further assay the test system is E. coli MG1655. Described as above. Type of assay: cell-based, Escherichia coli. The note with it: Escherichia coli, MG1655, read-out: MIC, Ec MG1655 WT.
In assay [9] the test system is Enterococcus faecium ATCC 19434. The description is as above. Type of assay: cell-based. Conditions: ATCC19434, 16-20 h, mode of three independent experiments, read-out: MIC, Efm ATCC 19434.
Assay [10] relates to Staphylococcus aureus ATCC 29213. The description is as above. Type of assay: cell-based. Conditions: ATCC29213; Staphylococcus aureus ATCC 29213; 16-20 h; mode of three independent experiments; read-out: MIC, Sa ATCC 29213.
Assay [11] concerns Enterobacter cloacae NCTC 13406. Described as above. Type of assay: cell-based. Conditions: NCTC13406; Enterobacter cloacae NCTC 13406; 16-20 h; mode of three independent experiments; read-out: MIC, Ecl NCTC 13406.
For assay [12], the system named is Mycobacterium smegmatis ATCC 19420. The assay is described as above. Type of assay: cell-based. The note with it: Mycolicibacterium smegmatis, ATCC19420, 16-20 h, mode of three independent experiments, read-out: MIC, Ms ATCC 19420.
Assay [13] concerns Escherichia coli ATCC 25922. The description is as above. Type of assay: cell-based. Conditions: ATCC25922; Escherichia coli ATCC 25922; 16-20 h; mode of three independent experiments; read-out: MIC, Ec ATCC 25922.
The subject of assay [14] is human hepatic cell line (HepG2 ATCC HB-8065). The assay is described as follows: Human cell viability assay (CellTiter-Glo). The note with it: Homo sapiens, HepG2, 24 h, read-out: IC50 (μg/mL) HepG2.
Assay [15] has as its system Acinetobacter baumannii NCTC 13420. The assay is described as follows: MIC, broth microdilution (CLSI) versus planktonic bacteria. The note with it: NCTC13420; Acinetobacter baumannii NCTC 13420; 16-20 h; mode of three independent experiments; read-out: MIC, Ab NCTC 13420. Type of assay: cell-based.
Assay [16] has as its system Burkholderia mallei China 7. The assay is described as follows: microbe, parasite or virus in culture. Type of assay: cell-based. Conditions: CHINA7, 24 h, read-out: MIC, Burkholderia mallei China 7.
Assay [17] deals with Francisella tularensis SCHU S4. The assay is described as follows: microbe, parasite or virus in culture. The note with it: SCHUS4, 38 h, read-out: MIC, Francisella tularensis SCHU S4. Type of assay: cell-based.
The subject of assay [18] is Burkholderia pseudomallei K96243. The assay is described as follows: microbe, parasite or virus in culture. Type of assay: cell-based. Conditions: K96243, 24 h, read-out: MIC, Burkholderia pseudomallei K96243.
The next assay relates to Bacillus anthracis Ames. The assay is described as follows: microbe, parasite or virus in culture. The note with it: 24 h, read-out: MIC, Bacillus anthracis Ames. Type of assay: cell-based.
For the next assay, the system named is Yersinia pestis CO92. The assay can be described thus: microbe, parasite or virus in culture. Type of assay: cell-based. The note with it: CO92, read-out: MIC, Yersinia pestis CO92.
The test system of assay [19] is Burkholderia pseudomallei 1026b. The assay is described as follows: microbe, parasite or virus in culture. Conditions: 24 h, read-out: MIC, Burkholderia pseudomallei 1026b. Type of assay: cell-based.
Assay [20] relates to Burkholderia pseudomallei DD503. The assay can be described thus: microbe, parasite or virus in culture. Conditions: DD503, 24 h, read-out: MIC, Burkholderia pseudomallei DD503. Type of assay: cell-based.

Molecules are shown by their SMILES. Converted amounts (≈) assume the structure as drawn.

In the case of `COc1ccc2ccc(=O)n(CCN[C@@H]3CC[C@@H]4[C@@H](C3)OC(=O)N4c3ccc4c(n3)NC(=O)CO4)c2n1` [Compound 1, 1-(2-{[(3aR,6R,7aR)-2-oxo-3-{3-oxo-2H,3H,4H-pyrido[3,2-b][1,4]oxazin-6-yl}-octahydro-1,3-benzoxazol-6-yl]amino}ethyl)-7-methoxy-1,2-dihydro-1,8-naphthyridin-2-one], the MIC (in assay [1]; with E. coli NCTC 13476; in [2]; in the assay on E. coli ATCC BAA-2452; in [4]; in assay [5]) was under 1 µg/mL throughout. In addition, the MIC (in assay [6]; in assay [7]; in [8]; with E. coli MG1655; in [9]; in assay [10]) was under 1 µg/mL throughout. The MIC in [11], in assay [12], in [13] and in assay [15] was under 1 µg/mL each time. Further, in assay [3], the “activity against both Gram-negative and Gram-positive bacteria (in words)” value is given as “excellent activity”. Besides, the “Fold increase in MIC, E. coli MG1655 D87G” value with E. coli MG1655 D87G is recorded as 1 fold. Moreover, the “Fold increase in MIC, E. coli MG1655 S83L” value with E. coli MG1655 S83L was 1 fold. Further, in assay [14], the IC50 is over 100 µg/mL.
Consider `COc1ncc2ccc(=O)n(CCN[C@@H]3CC[C@@H]4[C@@H](C3)OC(=O)N4c3ccc4c(n3)NC(=O)CO4)c2n1` [Compound 2, (3aR,6R,7aR)-6-[(2-{2-methoxy-7-oxo-7H,8H-pyrido[2,3-d]pyrimidin-8-yl}ethyl)amino]-3-(3-oxo-2H,3H,4H-pyrido[3,2-b][1,4]oxazin-6-yl}-octahydro-1,3-benzoxazol-2-one], for which the MIC was under 1 µg/mL in [1]; 1 to 10 µg/mL (≈ 1.97 to 19.7 µM) in the assay with E. coli NCTC 13476; 1 to 10 µg/mL (≈ 1.97 to 19.7 µM) in assay [2]; 1 to 4 µg/mL (≈ 1.97 to 7.88 µM) in [16]; under 1 µg/mL in the assay with E. coli ATCC BAA-2452; 1 to 4 µg/mL (≈ 1.97 to 7.88 µM) in assay [17]. Moreover, the MIC (in assay [6]; in assay [7]; in assay [8]; with E. coli MG1655; in assay [10]; in assay [11]) was under 1 µg/mL each time. The MIC is 1 to 4 µg/mL (≈ 1.97 to 7.88 µM) in assay [18]; under 1 µg/mL in assay [12]; under 1 µg/mL in [13]; under 1 µg/mL in the assay on Bacillus anthracis Ames; under 1 µg/mL in the assay with Yersinia pestis CO92; 1 to 4 µg/mL (≈ 1.97 to 7.88 µM) in assay [19]. For the same molecule, the MIC in assay [20] was 1 to 4 µg/mL (≈ 1.97 to 7.88 µM); in [15], under 1 µg/mL. The “Fold increase in MIC, E. coli MG1655 D87G” value in the assay on E. coli MG1655 D87G amounted to 1 fold. For the same molecule, the “Fold increase in MIC, E. coli MG1655 S83L” value in the assay on E. coli MG1655 S83L amounted to 1 fold. For the same molecule, in assay [14], the IC50 was over 100 µg/mL.
As for `COc1ccc2ccc(=O)n(CCCN[C@@H]3CC[C@@H]4[C@@H](C3)OC(=O)N4c3ccc4c(n3)NC(=O)CO4)c2n1` [Compound 76, 1-(3-{[(3aR,6R,7aR)-2-oxo-3-{3-oxo-2H,3H,4H-pyrido[3,2-b][1,4]oxazin-6-yl}-octahydro-1,3-benzoxazol-6-yl]amino}propyl)-7-methoxy-1,2-dihydro-1,8-naphthyridin-2-one], the MIC (in [1]; in the assay on E. coli NCTC 13476; in assay [2]; with E. coli ATCC BAA-2452; in assay [4]; in assay [5]) was under 1 µg/mL each time. Further, the MIC (in assay [6]; in [7]; with E. coli MG1655; in [9]; in assay [10]; in assay [11]) was under 1 µg/mL each time. Moreover, the MIC in [13] and in assay [15] was under 1 µg/mL each time. Besides, the “activity against both Gram-negative and Gram-positive bacteria (in words)” value in assay [3] is reported as “excellent activity”. Also, the “Fold increase in MIC, E. coli MG1655 D87G” value with E. coli MG1655 D87G stood at 2 fold. Also, the “Fold increase in MIC, E. coli MG1655 S83L” value in the assay with E. coli MG1655 S83L was 2 fold. Further, the IC50 in assay [14] fell in the range of 10 to 100 µg/mL (≈ 19.2 to 192 µM).
`C[C@H]1c2cccc(O)c2C(=O)C2=C(O)[C@]3(O)C(=O)C(C(N)=O)=C(O)[C@@H](N(C)C)[C@@H]3[C@@H](O)[C@@H]21` [DOX, doxycycline, reference compound]: the MIC in [16] was under 1 µg/mL; in assay [17], under 1 µg/mL; in [18] it was 1 to 4 µg/mL (≈ 2.25 to 9 µM); in the assay on Bacillus anthracis Ames it was under 1 µg/mL; in the assay with Yersinia pestis CO92, 1 to 4 µg/mL (≈ 2.25 to 9 µM); in [19], 1 to 4 µg/mL (≈ 2.25 to 9 µM). Besides, the MIC in assay [20] was 1 to 4 µg/mL (≈ 2.25 to 9 µM).
